For orientation: IC50 means the midpoint of a concentration-inhibition curve.

Counter-ions that a name gives are not always drawn. Like-named read-outs stand apart in the source and are kept apart here.

In one series the target is T1, IRAK4 (Homo sapiens, UniProt Q9NWZ3).
T1 construct: with 0.1 nM IRAK4, 1.6 μM of biotinylated peptide substrate and 10 μM ATP
T1 sequence (Q9NWZ3 1-460): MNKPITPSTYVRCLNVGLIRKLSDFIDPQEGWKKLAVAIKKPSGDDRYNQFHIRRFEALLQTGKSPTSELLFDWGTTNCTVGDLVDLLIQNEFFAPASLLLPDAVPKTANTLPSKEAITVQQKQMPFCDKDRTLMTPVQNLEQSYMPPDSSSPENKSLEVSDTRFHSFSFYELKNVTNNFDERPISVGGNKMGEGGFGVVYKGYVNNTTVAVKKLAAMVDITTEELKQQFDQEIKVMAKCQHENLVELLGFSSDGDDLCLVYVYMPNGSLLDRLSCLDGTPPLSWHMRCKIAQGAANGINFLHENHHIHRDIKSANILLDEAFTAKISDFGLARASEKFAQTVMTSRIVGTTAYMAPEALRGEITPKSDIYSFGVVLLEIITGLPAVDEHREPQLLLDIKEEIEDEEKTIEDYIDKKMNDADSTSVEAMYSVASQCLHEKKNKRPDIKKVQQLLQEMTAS
In words: IRAK4 MSD Biochemical Assay (1 mM ATP, 2 h). Conditions: room temperature. On the procedure: The 2-hour 10 μM ATP Biochemical Assay employs a MesoScale Detection (MSD) format.
The activity is quenched with 11 μl of 70 mM EDTA, pH 8.
To detect the phosphorylated biotinylated peptide substrate, 30 μl of the quenched reaction mixture is added to equivalent wells of a 384 well streptavidin coated MesoScale plate (Meso Scale Discovery #L21SA-1). After a 1 hour incubation of the plate for 1 hour at room temperature with gentle mixing, the plate wells are washed 3 times with 50 mM Tris, pH 7.5, 150 mM NaCl, 0.02% Tween-20.
A 25 μl volume of 1:500 anti-P-Threonine Rabbit polyclonal Antibody plus 1:500 Goat-anti-Rabbit Sulfo Tag Antibody (Meso Scale Discovery R32AB-1) in 50 mM Tris, pH 7.5, 150 mM NaCl, 0.02% Tween-20 plus 2% BSA is then added to each well. After a 1-hour incubation of the plate for 1 hour at room temperature with gentle mixing, the plate wells are washed, 3 times with 50 mM Tris, pH 7.5, 150 mM NaCl, 0.02% Tween-20. A 40 μl volume of 2×MSD Read Buffer (Meso Scale Discovery R92TC-1) is added to each well, and the plate is read immediately in an MSD Plate Reader (Meso Scale Discovery).
The 2-hour 1 mM ATP IRAK4 Biochemical assay was performed as described above, but with […] IRAK4 and 1 mM ATP.

The target in a further series is T2, MDR1 (P-gp) (Homo sapiens, UniProt P08183).
T2 construct: host or cells: MDCK cells
T2 sequence (P08183 whole entry): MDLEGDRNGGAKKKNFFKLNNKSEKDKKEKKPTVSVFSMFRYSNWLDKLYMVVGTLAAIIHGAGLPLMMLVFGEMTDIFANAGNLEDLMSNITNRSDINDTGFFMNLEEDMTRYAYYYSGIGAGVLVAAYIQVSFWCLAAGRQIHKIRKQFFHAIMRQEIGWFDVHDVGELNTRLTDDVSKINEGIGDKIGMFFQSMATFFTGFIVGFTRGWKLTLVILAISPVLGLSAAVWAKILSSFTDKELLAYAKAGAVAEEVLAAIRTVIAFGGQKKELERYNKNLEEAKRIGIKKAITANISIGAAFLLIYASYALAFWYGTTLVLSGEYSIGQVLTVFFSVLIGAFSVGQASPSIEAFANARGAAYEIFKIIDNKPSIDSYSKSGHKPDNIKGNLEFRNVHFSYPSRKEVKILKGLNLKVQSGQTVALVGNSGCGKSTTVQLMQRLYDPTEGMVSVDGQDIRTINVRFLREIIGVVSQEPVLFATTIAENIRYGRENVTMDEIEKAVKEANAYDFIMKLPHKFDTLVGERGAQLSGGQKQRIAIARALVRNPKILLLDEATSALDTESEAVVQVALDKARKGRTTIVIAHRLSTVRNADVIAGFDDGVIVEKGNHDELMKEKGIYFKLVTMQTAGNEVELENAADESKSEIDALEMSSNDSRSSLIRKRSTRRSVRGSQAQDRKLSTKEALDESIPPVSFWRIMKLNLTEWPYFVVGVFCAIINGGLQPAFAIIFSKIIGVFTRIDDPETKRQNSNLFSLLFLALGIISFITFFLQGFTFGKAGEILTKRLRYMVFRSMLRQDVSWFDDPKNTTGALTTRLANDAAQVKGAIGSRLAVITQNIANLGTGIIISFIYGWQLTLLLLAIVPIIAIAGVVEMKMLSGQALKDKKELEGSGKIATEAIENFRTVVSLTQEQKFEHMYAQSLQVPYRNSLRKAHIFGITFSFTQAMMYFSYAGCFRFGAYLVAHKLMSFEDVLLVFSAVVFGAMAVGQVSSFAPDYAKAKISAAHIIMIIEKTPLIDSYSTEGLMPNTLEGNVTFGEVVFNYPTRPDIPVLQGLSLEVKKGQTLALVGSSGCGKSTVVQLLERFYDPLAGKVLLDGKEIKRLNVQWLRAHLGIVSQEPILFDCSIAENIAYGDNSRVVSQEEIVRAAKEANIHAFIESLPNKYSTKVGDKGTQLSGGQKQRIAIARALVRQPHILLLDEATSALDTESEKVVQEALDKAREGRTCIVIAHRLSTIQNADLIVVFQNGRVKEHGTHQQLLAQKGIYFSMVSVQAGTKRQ
As to the kind of experiment: MDR1-MDCK assay (efflux ratio). The class given is in vitro ADME. Conditions: human, MDCK-MDR1, 1 μM compound, 120 minutes incubation; read-out: MDR1-MDCK Efflux Ratio; (B-A/A-B). On the procedure:
• The assay makes use of human MDR1 transfected MDCK cells (NIH cell line in-licensed from Absorption Systems) • The compounds are tested at 1 μM concentration prepared in transport buffer (Hank's balanced salt solution with HEPES) • MDR1-MDCK cell are cultured for 7 days in 96 well transwell insert plates (Corning). Insert plates are washed before the assay and TEER (Trans epithelial electric resistance) is measured. • These plates are loaded with test compound solution 85 μL for A-B transport and 260 μL for B-A transport in the respective donor compartment.
Mass balance=100×((Vr×Cr^final)+(Vd×Cd^final))/(Vd×CE) • Where: • dCr/dt is the cumulative concentration in the receiver compartment versus time in μM s^−1 • Vr is the volume of the receiver compartment in cm^3 • Vd is the volume of the donor compartment in cm^3 • A is the area of the insert (0.143 cm^2 for 96-well insert) • CE is the estimated experimental concentration (Time=0) of the dosing solution • Cr^final is the concentration of the receiver at the end of the incubation period • Cd^final is the concentration of the donor at the end of the incubation period.

Setting [1] is: read-out: IRAK4 MSD Biochemical Assay (1 mM ATP, 2 h) IC50.

For `COCCCn1cc2cc(C(=O)Nc3cccc(C(F)(F)F)n3)c(OC(C)C)nc2n1.Cl` [Example 60, 6-Isopropxy-2-(3-methoxypropyl)-N-(6-(trifluoromethyl)pyridin-2-yl)-2H-pyrazolo[3,4-b]pyridine-5-carboxamide hydrochloride], the IC50 on IRAK4 (setting [1]) amounted to 2.2 nM. For the same compound, the efflux ratio at 120 min, 1 μM at MDR1 (P-gp) was 1.5.

Turning to `CC(C)Oc1cc2nn(C34COC(C)(C3)C4)cc2cc1C(=O)Nc1cccn(C(F)F)c1=O` [Example 91, N-(1-(difluoromethyl)-2-oxo-1,2-dihydropyridin-3-yl)-6-isopropoxy-2-(1-methyl-2-oxabicyclo[2.1.]hexan-4-yl)-2H-indazole-5-carboxamide tfifluoroacetate], the IC50 against IRAK4 (IRAK4 MSD Biochemical Assay (1 mM ATP, 2 h) IC50 (nM)) came out at 0.3 nM. In addition, the efflux ratio at 120 min, 1 μM at MDR1 (P-gp) was 0.8.

In the case of `COc1cc2nn(C[C@H]3CCOC3)cc2cc1C(=O)Nc1cccc(C(F)F)n1` (single isomer, unassigned) [Example 18], on IRAK4 (setting [1]), the IC50 turned out to be 7.1 nM. Further, the efflux ratio at 120 min, 1 μM at MDR1 (P-gp) is 0.9.

For the compound `CC(C)Oc1cc2nn(C34CCC(C)(C3)OC4)cc2cc1C(=O)Nc1cccn(C)c1=O` (centres unmarked) [Example 57, 6-Isopropoxy-N-(1-methyl-2-oxo-1,2-dihydropyridin-3-yl)-2-(1-methyl-2-oxabicyclo[2.2.1]heptan-4-yl)-2H-indazole-5-carboxamide], the IC50 at IRAK4 (setting [1]) amounted to 0.8 nM. Moreover, the efflux ratio at 120 min, 1 μM on MDR1 (P-gp) was determined as 1.1.

Take `Cc1cnc2c(NC(=O)c3cc4cn(C56CCC(C)(C5)OC6)nc4cc3OC(C)C)cnn2c1` (centres unmarked) [Example 99, 6-Isopropoxy-2-(1-methyl-2-oxabicyclo[2.2.1]heptan-4-yl)-N-(6-methylpyrazolo[1,5-a]pyrimidin-3-yl)-2H-indazole-5-carboxamide trifluoroacetate]: at IRAK4 (setting [1]), the IC50 worked out at 0.3 nM. In addition, the efflux ratio at 120 min, 1 μM on MDR1 (P-gp) came out at 1.2.

As to `O=C(Nc1cccc(C(F)F)n1)c1cc2cn(C3CCOCC3)nc2cc1OC1CCOC1` (centres unmarked) [Example 75, N-(6-(difluoromethyl)pyridin-2-yl)-2-(tetrahydro-2H-pyran-4-yl)-6-((tetrahydrofuran-3-yl)oxy)-2H-indazole-5-carboxamide], the IC50 at IRAK4 (setting [1]) stood at 1.1 nM. The efflux ratio at 120 min, 1 μM on MDR1 (P-gp) was found to be 2.9.

On to `COC(C)(C)CCn1cc2cc(C(=O)Nc3cccc(C(F)F)n3)c(OC(C)C)cc2n1.Cl` [Example 29, N-(6-(difluoromethyl)pyridin-2-yl)-6-isopropoxy-2-(3-methoxy-3-methylbutyl)-2H-indazole-5-carboxamide hydrochloride], for which, on IRAK4 (setting [1]), the concentration for half-maximal inhibition (IC50) was found to be 0.6 nM. For the same compound, the efflux ratio at 120 min, 1 μM at MDR1 (P-gp) was 0.8.

In the case of `Cc1cnc2c(NC(=O)c3cc4cn(C[C@H]5CCOC5)nc4nc3OC3CCC3)cnn2c1` (single isomer, unassigned) [Example 122], the IC50 on IRAK4 (setting [1]) was 0.4 nM. For the same compound, the efflux ratio at 120 min, 1 μM at MDR1 (P-gp) amounted to 4.2.

Consider `COCCC(C)n1cc2cc(C(=O)Nc3cccc(C(F)F)n3)c(OC(C)C)cc2n1.Cl` (centres unmarked) [Example 59, N-(6-(difluoromethyl)pyridin-2-yl)-6-isopropoxy-2-(4-methoxybutan-2-yl)-2H-indazole-5-carboxamide hydrochloride], for which, at IRAK4 (setting [1]), the IC50 came out at 1 nM. Moreover, the efflux ratio at 120 min, 1 μM on MDR1 (P-gp) was determined as 0.4.

With `COc1ncccc1NC(=O)c1cc2cn(C34COC(C)(C3)C4)nc2cc1OC(C)C` [Example 90, 6-Isopropoxy-N-(2-methoxypyridin-3-yl)-2-(1-methyl-2-oxabicyclo[2.1.1]hexan-4-yl)-2H-indazole-5-carboxamide trifluoroacetate], the IC50 on IRAK4 (setting [1]) was 0.6 nM. Further, the efflux ratio at 120 min, 1 μM on MDR1 (P-gp) worked out at 0.7.

In the case of `CC(C)Oc1nc2nn(C3CCOC3)cc2cc1C(=O)Nc1cnn2cccnc12` (centres unmarked) [Example 37, 6-Isopropoxy-N-(pyrazolo[1,5-a]pyrimidin-3-yl)-2-(tetrahydrofuran-3-yl)-2H-pyrazolo[3,4-b]pyridine-5-carboxamide], on IRAK4 (setting [1]), the IC50 is 6.4 nM. Also, the efflux ratio at 120 min, 1 μM on MDR1 (P-gp) was 2.2.

In the case of `Cc1cnc2c(NC(=O)c3cc4cn(C[C@@H]5CCOC5)nc4nc3OC3CCC3)cnn2c1` (single isomer, unassigned) [Example 123], the IC50 on IRAK4 (setting [1]) came to 0.5 nM. In addition, on MDR1 (P-gp), the efflux ratio at 120 min, 1 μM came to 5.9.

For `COCCCn1cc2cc(C(=O)Nc3cccc(C(F)F)n3)c(OC(C)C)cc2n1.Cl` [Example 26, N-(6-(difluoromethyl)pyridin-2-yl)-6-isopropoxy-2-(3-methoxypropyl)-2H-indazole-5-carboxamide hydrochloride], on IRAK4 (setting [1]), the IC50 was 0.9 nM. In addition, the efflux ratio at 120 min, 1 μM at MDR1 (P-gp) is 0.7.

Regarding `CC(C)Oc1cc2nn(C3CCOCC3)cc2cc1C(=O)Nc1cccc2c1OCC2.Cl` [Example 73, N-(2,3-dihydrobenzofuran-7-yl)-6-isopropoxy-2-(tetrahydro-2H-pyran-4-yl)-2H-indazole-5-carboxamide hydrochloride], at IRAK4 (setting [1]), the IC50 amounted to 1.8 nM. Also, the efflux ratio at 120 min, 1 μM on MDR1 (P-gp) came to 0.7.

`CC(C)Oc1cc2nn(C3CCOCC3)cc2cc1C(=O)Nc1cccc(C(F)F)n1.Cl` [Example 25, N-(6-(difluoromethyl)pyridin-2-yl)-6-isopropoxy-2-(tetrahydro-2H-pyran-4-yl)-2H-indazole-5-carboxamide hydrochloride]: the IC50 at IRAK4 (setting [1]) stood at 0.3 nM. Also, the efflux ratio at 120 min, 1 μM on MDR1 (P-gp) is 0.6.

`COc1cccc(NC(=O)c2cc3cn(C[C@@H]4CCOC4)nc3cc2OC)n1` (single isomer, unassigned) [Example 22]: the IC50 at IRAK4 (setting [1]) came out at 9.2 nM. In addition, the efflux ratio at 120 min, 1 μM on MDR1 (P-gp) stood at 0.6.

On to `CC(C)Oc1nc2nn(CCC(C)(C)O)cc2cc1C(=O)Nc1cccc(C(F)F)n1` [Example 32, N-(6-(difluoromethyl)pyridin-2-yl)-2-(3-hydroxy-3-methylbutyl)-6-isopropoxy-2H-pyrazolo[3,4-b]pyridine-5-carboxamide], for which, at IRAK4 (setting [1]), the IC50 is 0.4 nM. Besides, the efflux ratio at 120 min, 1 μM on MDR1 (P-gp) stood at 3.4.

Consider `CC(C)Oc1nc2nn(CC3CCOC3)cc2cc1C(=O)Nc1ccccn1` (centres unmarked) [Example 77, 6-Isopropoxy-N-(pyridin-2-yl)-2-((tetrahydrofuran-3-yl)methyl)-2H-pyrazolo[3,4-b]pyridine-5-carboxamide], for which the IC50 at IRAK4 (setting [1]) worked out at 13.6 nM. Further, the efflux ratio at 120 min, 1 μM at MDR1 (P-gp) came to 1.9.

In the case of `CC(C)Oc1cc2nn(C34COC(C)(C3)C4)cc2cc1C(=O)Nc1cnn2cc(F)cnc12` [Example 96, N-(6-fluoropyrazolo[1,5-a]pyrimidine-3-yl)-6-isopropoxy-2-(1-methyl-2-oxabicyclo[2.1.1]hexan-4-yl)-2H-indazole-5-carboxamide trifluoroacetate], at IRAK4 (setting [1]), the IC50 came to 1.4 nM. Besides, the efflux ratio at 120 min, 1 μM at MDR1 (P-gp) was 1.6.

On to `CC(C)Oc1cc2nn(C34CCC(C)(C3)OC4)cc2cc1C(=O)Nc1cnn2cc(F)cnc12` (centres unmarked) [Example 100, N-(6-fluoropyrazolo[1,5-a]pyrimidin-3-yl)-6-isopropoxy-2-(1-methyl-2-oxabicyclo[2.2.1]heptan-4-yl)-2H-indazole-5-carboxamide], for which the IC50 on IRAK4 (setting [1]) is 1.2 nM.

As for `CC(C)Oc1cc2nn(C34COC(C)(C3)C4)cc2cc1C(=O)Nc1cccn(C)c1=O.O=C(O)C(F)(F)F` [Example 55, 6-Isopropoxy-N-(1-methyl-2-oxo-1,2-dihydropyridin-3-yl)-2-(1-methyl-2-oxabicyclo[2.1.1]hexan-4-yl)-2H-indazole-5-carboxamide Trifluoroacetate], the efflux ratio at 120 min, 1 μM on MDR1 (P-gp) stood at 1.2.

Consider `Cn1ccc(NC(=O)c2cc3cn(C4CCCOC4)nc3nc2OC2CCC2)n1` (single isomer, unassigned) [Example 130], for which the IC50 at IRAK4 (setting [1]) is 1.7 nM.

Source of the values: US20230002361A1, “2H-INDAZOLE DERIVATIVES AND THEIR USE IN THE TREATMENT OF DISEASE” (BIOGEN MA INC., priority 2019, published 2023).
